Experimental data reported in patent US11440913B2, “Aminoimidazopyridazines as kinase inhibitors” (BRISTOL-MYERS SQUIBB COMPANY, priority 2017, dated 2022).
Where a name gives a salt, the structure may show the parent alone. Read-outs that look alike come from different tables or passages of the source.

How the values were obtained:
[1] = system: MLKL phosphorylation in HT29-L23 human colorectal adenocarcinoma cells; assay: MLKL Phosphorylation High-Content Assay; assay type: cell-based; conditions: necroptosis induced with TNFα, SMAC mimetic and Z-VAD, 6 h, read-out: pMLKL (IC50)
Procedure, shortened: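 HT29-L23 cells pretreated 30 min at 37 °C with compound (6.25 to 0.106 μM final), then necroptosis induced with TNFα 35 ng/mL, SMAC mimetic 700 nM and Z-VAD 140 nM for 6 h. Fixed cells immunostained for MLKL pS358 and imaged; IC50 and Ymax from 4-parameter logistic fit.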

[2] = biological target: His-GST-TVMV-hRIPK1(1-324) (Homo sapiens (Human), UniProt Q13546); assay: RIPK1 HTRF Binding Assay; conditions: HTRF binding, 1 h at rt; read-out: RIPK1 (IC50)
Procedure, shortened: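 HTRF probe-displacement binding: 1 nM His-GST-TVMV-hRIPK1(1-324) (baculovirus construct), 90.6 nM probe, 0.2 nM anti-GST-Tb in 20 mM HEPES, 10 mM MgCl2, 0.015% Brij-35, 4 mM DTT, 0.05 mg/mL BSA. Incubated 1 h at rt; FRET 520/495 nm ratio, inhibition relative to DMSO-only wells.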

Chain of His-GST-TVMV-hRIPK1(1-324) (Q13546 1-324): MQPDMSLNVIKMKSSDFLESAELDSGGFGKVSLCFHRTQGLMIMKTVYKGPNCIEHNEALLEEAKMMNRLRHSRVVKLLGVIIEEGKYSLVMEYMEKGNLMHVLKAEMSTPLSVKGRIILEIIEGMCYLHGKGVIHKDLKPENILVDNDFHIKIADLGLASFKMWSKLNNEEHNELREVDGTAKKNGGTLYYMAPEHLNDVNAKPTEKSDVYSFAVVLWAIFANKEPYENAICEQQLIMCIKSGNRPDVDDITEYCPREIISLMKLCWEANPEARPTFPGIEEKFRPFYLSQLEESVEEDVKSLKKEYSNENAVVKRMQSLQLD

| Compound | IC50 [1] | IC50 [2] | IC50 ([1]; Homo sapiens) |
| --- | --- | --- | --- |
| CC(=O)Nc1cn2nc(-c3cnc(C)c(C(=O)N4CCCC(C(O)c5ccc(F)cc5)C4)c3)ccc2n1 (single isomer, unassigned) [Example 355, N-[6-(5-{3-[(4-fluorophenyl)(hydroxy)methyl]piperidine-1-carbonyl}-6-methylpyridin-3-yl)imidazo[1,2-b]pyridazin-2-yl] acetamide] | 553 nM | 223 nM | – |
| CC(=O)Nc1cn2nc(-c3cnc(C)c(C(=O)NCc4cc(F)cc(F)c4OC4CC(C)OC(C)C4)c3)ccc2n1 (centres unmarked) [Example 189, N-({2-[(2,6-dimethyloxan-4-yl)oxy]-3,5-difluorophenyl}methyl)-5-{2-acetamidoimidazo [1,2-b]pyridazin-6-yl}-2-methylpyridine-3-carboxamide] | – | 91 nM | 208 nM |
| COc1ncc(-c2ccc3nc(NC(C)=O)cn3n2)cc1C(=O)NCc1cccc(F)c1OC(C)C1CC1 (centres unmarked) [Example 144, N-{[2-(1-cyclopropylethoxy)-3-fluorophenyl]methyl}-5-{2-acetamidoimidazo[1,2-b]pyridazin-6-yl}-2-methoxypyridine-3-carboxamide] | 6 nM | 6 nM | – |
| CC(=O)Nc1cn2nc(-c3cc(F)c(C)c(C(=O)NCc4cccc(OC(F)(F)F)c4F)c3)ccc2n1 [Example 361, 5-{2-acetamidoimidazo [1,2-b]pyridazin-6-yl}-3-fluoro-N-{[2-fluoro-3-(trifluoromethoxy)phenyl]methyl}-2-methylbenzamide] | – | 42 nM | 135 nM |
| CC(=O)OCC(=O)Nc1cn2nc(-c3cnc(C)c(C(=O)N[C@H](C)c4cc(OC(F)(F)F)ccc4F)c3)ccc2n1 [Example 342, {[6-(5-{[(1R)-1-[2-fluoro-5-(trifluoromethoxy)-phenyl]ethyl]-carbamoyl}-6-methylpyridin-3-yl)imidazo[1,2-b]pyridazin-2-yl]carbamoyl}-methyl acetate] | – | 13 nM | 142 nM |
| [2H]C([2H])([2H])Oc1ncc(-c2ccc3nc(NC(C)=O)cn3n2)cc1C(=O)NCc1cc(F)cc(F)c1OC1CCCOC1 (centres unmarked) [Example 43, N-{[3,5-difluoro-2-(oxan-3-yloxy)phenyl]methyl}-5-{2-acetamidoimidazo[1,2-b]pyridazin-6-yl}-2-(D3)methoxypyridine-3-carboxamide] | – | 10 nM | 28 nM |
| CC(=O)Nc1cn2nc(-c3cc(C(=O)NCc4cc(C(=O)N5CCCC5(C)C)ccc4F)c(C)cc3F)ccc2n1 [Example 416, N-{[5-(2,2-dimethylpyrrolidine-1-carbonyl)-2-fluorophenyl]methyl}-5-{2-acetamidoimidazo [1,2-b]pyridazin-6-yl}-4-fluoro-2-methylbenzamide] | – | 13 nM | 72 nM |
| 3-{2- acetamidoimidazo [1,2-b]pyridazin- 6-yl}-2-fluoro- N-{[2-fluoro-5- (trifluoromethoxy) phenyl] (Â^2Hâ,,)methyl} benzamide [Example 430] | 9 nM | 3 nM | – |
| COc1nc(C)c(-c2ccc3nc(NC(C)=O)cn3n2)cc1C(=O)NCc1ccccc1OCC1CC1 [Example 318, N-{[2-(cyclopropylmethoxy)phenyl]methyl}-5-{2-acetamidoimidazo[1,2-b]pyridazin-6-yl}-2-methoxy-6-methylpyridine-3-carboxamide] | – | 3 nM | 2 nM |
| CC(=O)Nc1cn2nc(-c3cc(C(=O)NCC[C@@H](O)c4ccc(Cl)cc4)c(C)cc3C)ccc2n1 [Example 382, N-[(3R)-3-(4-chlorophenyl)-3-hydroxypropyl]-5-{2-acetamidoimidazo [1,2-b]pyridazin-6-yl}-2,4-dimethylbenzamide] | – | 4 nM | 2 nM |
| CCC(=O)Nc1cn2nc(-c3cnc(OC)c(C(=O)NCc4cc(F)cc(F)c4OC4CCOCC4)c3)ccc2n1 [Example 247, N-{[3,5-difluoro-2-(oxan-4-yloxy)phenyl]methyl}-2-methoxy-5-{2-propanamidoimidazo[1,2-b]pyridazin-6-yl}pyridine-3-carboxamide] | – | 2 nM | 2 nM |
| CC(=O)Nc1cn2nc(-c3cnc(C)c(C(=O)NC(C)c4cc(C(F)(F)F)ccc4F)c3)ccc2n1 (centres unmarked) [Example 205, 5-{2-acetamidoimidazo[1,2-b]pyridazin-6-yl}-N-{1-[2-fluoro-5-(trifluoromethyl)phenyl]ethyl}-2-methylpyridine-3-carboxamide] | 74 nM | 27 nM | – |
| CC(=O)Nc1cn2nc(-c3cc(C(=O)N[C@H](C)c4cc(C(F)(F)F)ccc4F)c(C)nc3C)ccc2n1 [Example 69, 5-{2-acetamidoimidazo[1,2-b]pyridazin-6-yl}-N-[(1R)-1-[2-fluoro-5-(trifluoromethyl)phenyl]ethyl]-2,6-dimethylpyridine-3-carboxamide] | – | 15 nM | 23 nM |
| Cc1ncc(-c2ccc3nc(NC(=O)CN4CCC(F)(F)CC4)cn3n2)cc1C(=O)NCC[C@@H](O)c1ccc(Cl)cc1 [Example 343, N-[(3R)-3-(4-chlorophenyl)-3-hydroxypropyl]-5-{2-[2-(4,4-difluoropiperidin-1-yl)acetamido]imidazo[1,2-b]pyridazin-6-yl}-2-methylpyridine-3-carboxamide] | – | 9 nM | 24 nM |
| COc1cc(C)c(-c2ccc3nc(NC(C)=O)cn3n2)cc1C(=O)NCc1cc(OC(F)(F)F)ccc1F [Example 421, 5-{2-acetamidoimidazo [1,2-b]pyridazin-6-yl}-N-{[2-fluoro-5-(trifluoromethoxy)phenyl]methyl}-2-methoxy-4-methylbenzamide] | – | 2 nM | 10 nM |
| COc1ncc(-c2ccc3nc(NC(=O)C(C)(C)O)cn3n2)cc1C(=O)NCc1cc(OC(F)(F)F)ccc1F [Example 36, N-{[2-fluoro-5-(trifluoromethoxy)phenyl]methyl}-5-[2-(2-hydroxy-2-methylpropanamido)imidazo[1,2-b]pyridazin-6-yl]-2-methoxypyridine-3-carboxamide] | – | 48 nM | 92 nM |
| Cc1ncc(-c2ccc3nc(NC(=O)CO)cn3n2)cc1C(=O)NCc1cc(OC(F)(F)F)ccc1F [Example 39, N-{[2-fluoro-5-(trifluoromethoxy)phenyl]methyl}-5-[2-(2-hydroxyacetamido)imidazo[1,2-b]pyridazin-6-yl]-2-methylpyridine-3-carboxamide] | – | 55 nM | 119 nM |
| CC(=O)Nc1cn2nc(-c3ccc(C)c(C(=O)NCc4cc(-c5cnn(C6CC6)c5)ccc4F)c3F)ccc2n1 [Example 409, N-{[5-(1-cyclopropyl-1H-pyrazol-4-yl)-2-fluorophenyl]methyl}-3-{2-acetamidoimidazo [1,2-b]pyridazin-6-yl}-2-fluoro-6-methylbenzamide] | – | 2 nM | 13 nM |
| [2H]C([2H])([2H])Oc1ncc(-c2ccc3nc(NC(C)=O)cn3n2)cc1C(=O)NCc1cc(OC)ccc1F [Example 40, 5-{2-acetamidoimidazo[1,2-b]pyridazin-6-yl}-N-[(2-fluoro-5-methoxyphenyl)methyl]-2-(D3)methoxypyridine-3-carboxamide] | – | 125 nM | 265 nM |
| [2H]C([2H])([2H])Oc1ncc(-c2ccc3nc(NC(C)=O)cn3n2)cc1C(=O)NCc1cc(F)cc(F)c1OCC1CC1 [Example 55, N-{[2-(cyclopropylmethoxy)-3,5-difluorophenyl]methyl}-5-{2-acetamidoimidazo[1,2-b]pyridazin-6-yl}-2-(D3)methoxypyridine-3-carboxamide, TFA] | – | 1 nM | 3 nM |
| [2H]C([2H])([2H])Oc1ncc(-c2ccc3nc(NC(C)=O)cn3n2)cc1C(=O)NC(C)c1ccccc1OC(F)(F)F (centres unmarked) [Example 54, 5-{2-acetamidoimidazo[1,2-b]pyridazin-6-yl}-2-(D3)methoxy-N-{1-[2-(trifluoromethoxy)phenyl]eth-yl}pyridine-3-carboxamide] | – | 5 nM | 24 nM |
| COc1ncc(-c2ccc3nc(NC(C)=O)c(C)n3n2)cc1C(=O)NCc1cccc(OC(F)(F)F)c1 [Example 257, 5-{2-acetamido-3-methylimidazo[1,2-b]pyridazin-6-yl}-2-methoxy-N-{[3-(trifluoromethoxy)phenyl]methyl}pyridine-3-carboxamide, TFA] | – | 61 nM | 69 nM |
| O=C(CN1CCC(F)(F)CC1)Nc1cn2nc(-c3cccc(C(=O)NCc4cc(OC(F)(F)F)ccc4F)c3F)ccc2n1 [Example 427, 3-{2-[2-(4,4-difluoropiperidin-1-yl)acetamido]imidazo [1,2-b]pyridazin-6-yl}-2-fluoro-N-{[2-fluoro-5-(trifluoromethoxy)phenyl]methyl} benzamide] | – | 7 nM | 3 nM |
| CC(=O)Nc1cn2nc(-c3cnc(C)c(C(=O)NCc4cc(C(F)(F)F)ccc4F)c3)ccc2n1 [Example 206, 5-{2-acetamidoimidazo[1,2-b]pyridazin-6-yl}-N-{[2-fluoro-5-(trifluoromethyl)phenyl]methyl}-2-methylpyridine-3-carboxamide, TFA] | – | 12 nM | 37 nM |
| COc1c(F)cc(-c2ccc3nc(NC(C)=O)cn3n2)cc1C(=O)NCc1cc(OC(F)(F)F)ccc1F [Example 371, 5-{2-acetamidoimidazo [1,2-b]pyridazin-6-yl}-3-fluoro-N-{[2-fluoro-5-(trifluoromethoxy)phenyl]methyl}-2-methoxybenzamide] | – | 5 nM | 15 nM |
